Data as given in ChEMBL document CHEMBL1201862, “PubChem BioAssay data set” (2004).
Active and inactive are the calls of the source.

Assays:
[1] = biological target: Nuclear receptor subfamily 0 group B member 1 (Homo sapiens, UniProt P51843); assay: Luminescence-based cell-based high throughput dose response assay for inhibitors of the orphan nuclear receptor subfamily 0, group B, member 1 (DAX1; NR0B1). [Related pubchem assays (depositor defined):AID504766, AID504790]; format: functional
[2] = tested on: HEK293; assay: cells; format: functional, cell-based; conditions: Homo sapiens
[3] = Luminescence Cell-Based Dose Response Follow up to Identify Inhibitors of Platelet Dense Granule Release. [Related pubchem assays (depositor defined):AID1663, AID1678, AID1889, AID2519]; format: functional
[4] = blockers of SFLLRN-triggered platelet ATP secretion – cell-based, human platelets, luminescence, dry powder, dose response (AID 493100); format: functional
[5] = tested on: Candida albicans; assay: antifungal activity against resistant Candida strain – CaCi-8, fluconazole, Alamar Blue, dry powder, dose response (AID 488807); format: functional, organism-based
[6] = tested on: Candida albicans; assay: C. albicans growth inhibition with fluconazole – CaCi-2 strain, Alamar Blue, dry powder, set 4, dose response (AID 488943); format: functional, organism-based
[7] = tested on: Candida albicans; assay: fluconazole-resistant Candida strain growth inhibitors – CaCi-8 strain, dry powder, set 4, dose response (AID 488950); format: functional, organism-based
[8] = tested on: Candida albicans; assay: Candida growth inhibition combined with fluconazole – CaCi-2 strain, Alamar Blue, dry powder, set 3, dose response (AID 488907); format: functional, organism-based
[9] = tested on: Candida albicans; assay: single-agent toxicity toward C. albicans – CaCi-2 strain, no fluconazole, dry powder, set 4, counter-screen for reversing antifungal drug resistance, dose response (AID 488932); format: functional, organism-based
[10] = biological target: Dual specificity protein phosphatase 3 (Homo sapiens, UniProt P51452); assay: SAR VHR1 Fluorescent Assay for In Vitro dose response studies Set 3. [Related pubchem assays (depositor defined):AID1654, AID1661, AID1878]; format: functional
Dual specificity protein phosphatase 3, sequence (P51452 whole entry): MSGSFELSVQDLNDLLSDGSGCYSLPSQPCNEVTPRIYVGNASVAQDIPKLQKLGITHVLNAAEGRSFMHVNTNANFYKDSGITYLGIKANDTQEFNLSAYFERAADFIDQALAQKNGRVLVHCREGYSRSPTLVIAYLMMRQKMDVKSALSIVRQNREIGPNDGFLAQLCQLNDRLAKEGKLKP

Nuclear receptor subfamily 0 group B member 1, sequence (P51843 whole entry): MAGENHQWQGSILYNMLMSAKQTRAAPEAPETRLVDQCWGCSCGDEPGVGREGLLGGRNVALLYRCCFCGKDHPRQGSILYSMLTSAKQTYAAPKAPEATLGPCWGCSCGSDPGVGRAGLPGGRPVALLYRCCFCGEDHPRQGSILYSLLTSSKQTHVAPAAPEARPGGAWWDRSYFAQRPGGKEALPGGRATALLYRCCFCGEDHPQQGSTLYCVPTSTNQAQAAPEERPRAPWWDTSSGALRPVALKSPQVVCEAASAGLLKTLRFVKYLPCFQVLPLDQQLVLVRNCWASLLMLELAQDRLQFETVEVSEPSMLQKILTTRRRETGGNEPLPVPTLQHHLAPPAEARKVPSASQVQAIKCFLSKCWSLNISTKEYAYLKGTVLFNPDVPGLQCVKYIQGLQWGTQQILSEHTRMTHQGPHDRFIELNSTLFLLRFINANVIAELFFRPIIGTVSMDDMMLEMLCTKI

CCCCNC(=O)Nc1nc2ccccc2s1
IC50 [1]: > 67.5 µM (inactive) | IC50 [2]: > 67.5 µM (inactive)

C/C(=N/NC(=O)C1CCCC1)c1ccc(NC(=O)C(F)(F)F)cc1
EC50 [3]: 0.802 µM (active) | AC50 [4]: 12.3 µM (active)

O=C(c1ccccc1)N1CCN(c2ccnc3cc(Cl)ccc23)CC1
AC50 [5]: 5.68 µM (active) | AC50 [6]: 1.69 µM (active) | AC50 [7]: 2.05 µM (active)

Cn1ccnc1N1CCN(C(=O)c2ccc(Cl)cc2)CC1
AC50 [8]: 0.587 µM (active) | AC50 [9]: > 260 µM (inactive) | AC50 [6]: 8.2 µM (active) | AC50 [7]: 224 µM (active)

COc1ccc(C(=O)Nc2nc3c(OC)cccc3s2)cc1
IC50 [10]: 41.9 µM (active)
